Measurements as given in US20090238792A1, “SUPPRESSION OF POSTOPERATIVE ILEUS” (University of Pittsburgh of the Commonwealth System of …, priority 2007, published 2009).

Assays:
[1] = test system: MPO positive leukocytes in the intestinal muscularis; assay: Myeloperoxidase (MPO) histochemistry: leukocyte infiltration in muscularis whole-mounts; format: in vivo, rat; conditions: for infiltrating MPO positive leukocytes: manipulated rats, 24 h postoperatively, SM vehicle 95±6.4
Protocol: (§1) Age matched animals treated with vehicle (normal saline) or valine (263.5 mg/kg, osmotic control) at appropriate time points and at equal volumes served as controls.
(§2) The rodent intestine was subjected to a standardized degree of surgical manipulation as described previously (14). Rats were anesthetized by isoflurane inhalation and the abdomen was opened by a midline laparotomy. The cecum was eventrated and laid out onto a moist gauze. Then, the intestine was inspected along its length and gently compressed using moist cotton applicators. The midline incision was closed by two layers of continuous sutures. All operative procedures were performed under sterile conditions with the intestine being handled only by instruments and never touched directly. Animals were killed at specific time points postoperatively by isoflurane anesthesia inhalation overdose and heart incision.
Histochemistry and Immunohistochemistry: Leukocyte infiltration was quantified on rat whole-mounts of the intestinal muscularis as described previously (N=6-8) (43). Myeloperoxidase (MPO) positive cells were detected using a mixture of 30 mg Hanker-Yates reagent, 30 ml KRB and […] 3% hydrogen peroxide for 10 minutes. Leukocytes were counted in 5 randomly chosen areas in each specimen (3 specimen per animal) at a magnification of 200×.
(§3) Methods: ACI-rats (180-220 g) underwent standardized surgical manipulation of the intestine. […] Age matched animals treated with vehicle or valine (osmotic control) at appropriate time points and at equal volumes served as controls. […] Postoperative mediator mRNA expression in the intestinal muscularis was determined by real-time RT PCR. Leukocyte extravasation was investigated in muscularis whole-mounts. Nitrite production was measured in muscularis cultures. In vivo transit of FITC-dextran was measured using geometric center analysis (GC). In vitro circular muscle contractility was assessed in a standard organ bath. Statistical analysis: unpaired Student t test, p<0.05, mean±SEM.

[2] = test system: C57Bl/6 mice with surgical manipulation (SM); conditions: SM+glycine 170 mg/kg, control=11.0±0.44, SM=4.1±0.18, SM+saline=4.1±0.5
Protocol: as §1

COX-2 mRNA = conditions: glycine 170 mg/kg, 3 hours postoperatively; SM 3.2-fold; not significant
Protocol: as §1
as §2, with “Animals were killed at specific time points postoperatively by isoflurane anesthesia inhalation overdose and heart incision.” left out
mRNA Expression Analysis: Postoperative mediator mRNA expressions in the small intestinal muscularis were analyzed using SYBR Green two-step real-time RT-PCR as previously described, (N=4-6). […] Equal aliquots (200 ng) of total RNA from each sample, quantified by spectrophotometer, were processed for complimentary DNA (cDNA) synthesis. […] The efficiency and equality of the real-time PCR primer pairs were determined by amplifying serial dilutions of muscularis cDNA. […] Relative quantification was performed using the comparative CT method as described by Schmittgen et al. (42).

[3] = test system: interleukins and chemokines
Text: Luminex Multiplex Bead Immunoassays: The release of […] inflammatory analytes into the mouse tissue culture supernatant, obtained as above, was quantified with a Luminex 100™ using microsphere-based multiplexing technology. The mouse cytokine twenty plex immune kit was comprised of analyte specific components for the simultaneous measurement of the following mouse cytokines (FGF-basic, IL-1α, IL-1β, IL-2, IL-4, IL-5, IL-6, IL-10, IL-12p70, IL-13, IL-17, TNF-α, IFN-γ, GM-CSF, KC, MCP-1, MIG, MIP-1α, IP-10 and VEGF) (Invitrogen, Carlsbad, Calif.).

[4] = 170 mg/kg intravenously; cited from earlier work
nitrite (nitric oxide) = assay: Nitrite release (Griess reaction) from organ cultured muscularis; format: in vivo, rat
Protocol: as §1, §2
Tissue culture and determination of nitrite and prostanoid release in supernatant: The rat small intestine and colon were processed for tissue culture at 24 hours as described previously, (N=5-8) (25). Briefly, the muscularis was isolated by stripping the muscularis from the mucosa and then cut into small pieces and washed twice in Hank's balanced salt solution (HBSS) with 100 U/ml penicillin G and 100 μg/ml streptomycin. Aliquots of muscularis ([…]) were incubated (37° C., 5% CO2) in 6-well tissue culture plates containing 3 ml of supplemented Dulbecco's modified Eagle medium (DMEM)-F12 with 100 U/ml penicillin G and 100 μg/ml streptomycin. After an incubation period of 24 hours, 500 μl aliquots of supernatant were collected, frozen in liquid nitrogen and stored at −80° C. The muscle tissue was blotted dry, and the weight was estimated. To estimate the generation of NO from the intestinal muscularis, nitrite production was measured by the Griess reaction (44). Supernatant from the tissue culture was mixed with equal amount of Griess reagent (0.1% N-(1-naphtyl)ethyl-enediamine dihydrochloride and 1% sulfanilamide in 6% phosphoric acid; 1:1) and incubated at room temperature for 10 minutes. The absorbance at 550 nm was measured with a microplate reader and compared with standard prepared from serial dilutions of sodium nitrite. Each standard and supernatant sample was analyzed in duplicate, and the mean value of nitrite production was normalized to the tissue weight.
as §3

IL-6 mRNA = assay: Real-time RT-PCR of muscularis IL-6 mRNA 3 hours postoperatively; format: in vivo, rat
Protocol: as §1, §2
mRNA Expression Analysis: Postoperative mediator mRNA expressions in the small intestinal muscularis were analyzed using SYBR Green two-step real-time RT-PCR as previously described, (N=4-6). […] Total mRNA extraction was performed using the guanidium-thiocyanate phenol-chloroform extraction method. Equal aliquots (200 ng) of total RNA from each sample, quantified by spectrophotometer, were processed for complimentary DNA (cDNA) synthesis. Primer sequences were used as described previously (tumor necrosis factor-a, TNF-a) (35), or designed according to published sequences 36-41, (GenBank accession numbers: NM_017008 [glyceraldehyde phosphate dehydrogenase (GAPDH)], AF233596 [cyclo-oxygenase-2 (COX-2)], NM_012967 [intercellular adhesion molecule-1 (ICAM-1)], M26744 [interleukin-6 (IL-6)] and NM_012611 [inducible nitric oxide synthase (iNOS)]), using Primer Express software (PE Applied Biosystems, Foster City, Calif.) and purchased from Life Technologies (Rockville, Md.). GAPDH was used as an endogenous control. The efficiency and equality of the real-time PCR primer pairs were determined by amplifying serial dilutions of muscularis cDNA. For each target gene different MgCl2 (3 to 5 mM) concentrations were tested to optimize the PCR amplification. […] Relative quantification was performed using the comparative CT method as described by Schmittgen et al. (42).
Methods: ACI-rats (180-220 g) underwent standardized surgical manipulation of the intestine. […] Postoperative mediator mRNA expression in the intestinal muscularis was determined by real-time RT PCR. […] Nitrite production was measured in muscularis cultures. In vivo transit of FITC-dextran was measured using geometric center analysis (GC). In vitro circular muscle contractility was assessed in a standard organ bath. […]

With `NCC(=O)O` [glycine] the “reduction of infiltrating leukocytes compared to manipulated vehicle pretreated rats” value ([1]; glycine 85 mg/kg) was 18%, the “reduction of infiltrating leukocytes compared to manipulated vehicle pretreated rats” value ([1]; glycine 170 mg/kg) was 27% and the “infiltrating MPO positive leukocytes” value ([1]; 85 mg/kg glycine) was 78±5.1 cells/field at 200×. For the same compound, the “infiltrating MPO positive leukocytes” value ([1]; glycine 170 mg/kg or valine (263.5 mg/kg)) was 69±5.7 cells/field at 200×, the MPO positive cells ([1]; rats without intestinal manipulation, glycine injected, vehicle 2±0.9) was 2±0.5 cells/field at 200× magnification and the “geometric center of gastrointestinal transit” value [2] was 10.3±7. For the same compound, the “COX-2 mRNA postoperative upregulation” value (COX-2 mRNA) was 2.3 fold, the “interleukins and chemokines released into organ culture media, colonic muscularis externa” value ([3]; manipulated colonic muscularis, significance reached by IL-5, IL-6, IL-10, IL-12, KC, MCP-1, MIP1-α and GM-CSF) was “tended to be quelled” and the “interleukins and chemokines released into organ culture media, jejunal muscularis externa” value ([3]; manipulated jejunal muscularis, significance reached by IL-6, IP-10 and MIP1-α) was “tended to be quelled”. The “production of chemokines (IP-10, KC, MCP-1, MIP-1α, VEGF and GM-CSF)” value ([3]; organ cultured muscularis of jejunum and colon, more dramatic in colon) was “trend for the inhibition”, the “release of interleukins 5, 6, 10 and 12” value ([3]; organ cultured muscularis of jejunum and colon, more pronounced in colon) was “decrease” and the “increase of glycine serum levels” value [4] was “about sevenfold”. For the same compound, the “attenuation of postoperative increase in nitrite production” value (nitrite (nitric oxide); Example 5, muscularis cultures, glycine (170 mg) i.v. 1 hour prior to surgery) was 39%, the “nitrite release, fold increase over control, colon” value (nitrite (nitric oxide); manipulated rats, colonic muscularis 24 h organ culture, glycine 170 mg/kg or valine, SM vehicle 10.9-fold) was 2.5 fold and the “nitrite release, fold increase over control, jejunum” value (nitrite (nitric oxide); manipulated rats, jejunal muscularis 24 h organ culture, glycine 170 mg/kg or valine, SM vehicle 11.4-fold) was 2.7 fold. The “Griess reaction measurements from the unmanipulated muscularis” value (nitrite (nitric oxide); unmanipulated, glycine 170 mg/kg) was “no significant effects”, the “IL-6 mRNA induction vs non-operated vehicle treated controls” value (IL-6 mRNA; glycine pretreatment, 3 hours postoperatively, manipulation alone 8521 fold) was 2742 fold and the “mediator mRNA levels in non-operated animals vs non-operated vehicle rats” value (IL-6 mRNA; non-operated glycine injected rats) was “did not differ”. The “postoperative induction of IL-6 mRNA” value (IL-6 mRNA; surgically manipulated rats, 3 hours postoperatively) was “significantly attenuated”.
